According to ChEMBL document CHEMBL4828718, “Synthesis and Antifungal Activity Evaluation of Phloeodictine Analogues” (J Nat Prod, 2021):
≈ marks a conversion by molar mass, not a printed value. Calls of active or inactive are those of the source. No cut-off for these calls is given here.

How the values were obtained:
[1] = system: Aspergillus fumigatus; experiment: Antifungal activity against Aspergillus fumigatus ATCC 90906 assessed as fungal growth inhibition incubated for 72 hrs by alamar blue assay; type: functional
[2] = system: Nakaseomyces glabratus; experiment: Antifungal activity against Candida glabrata ATCC 90030 assessed as fungal growth inhibition incubated for 18 to 24 hrs by alamar blue assay; type: functional
[3] = system: Candida albicans; experiment: Antifungal activity against Candida albicans ATCC 90028 assessed as fungal growth inhibition incubated for 18 to 24 hrs by alamar blue assay; type: functional
[4] = system: Pichia kudriavzevii; experiment: Antifungal activity against Candida krusei ATCC 6258 assessed as fungal growth inhibition incubated for 18 to 24 hrs by alamar blue assay; type: functional
[5] = system: Cryptococcus neoformans; experiment: Antifungal activity against Cryptococcus neoformans ATCC 90113 assessed as fungal growth inhibition incubated for 72 hrs by alamar blue assay; type: functional
[6] = system: Cryptococcus neoformans; experiment: Fungicidal activity against Cryptococcus neoformans ATCC 90113 assessed as fungal growth inhibition incubated for 72 hrs by alamar blue assay; type: functional
[7] = system: Candida albicans; experiment: Fungicidal activity against Candida albicans ATCC 90028 assessed as fungal growth inhibition incubated for 18 to 24 hrs by alamar blue assay; type: functional
[8] = system: Aspergillus fumigatus; experiment: Fungicidal activity against Aspergillus fumigatus ATCC 90906 assessed as fungal growth inhibition incubated for 72 hrs by alamar blue assay; type: functional
[9] = system: Pichia kudriavzevii; experiment: Fungicidal activity against Candida krusei ATCC 6258 assessed as fungal growth inhibition incubated for 18 to 24 hrs by alamar blue assay; type: functional
[10] = system: Vero; experiment: Cytotoxicity against African green monkey Vero cells assessed as reduction in cell viability incubated for 48 hrs by neutral red dye based assay; design: species or system Chlorocebus sabaeus
[11] = system: Nakaseomyces glabratus; experiment: Fungicidal activity against Candida glabrata ATCC 90030 assessed as fungal growth inhibition incubated for 18 to 24 hrs by alamar blue assay; type: functional
[12] = Aspergillus fumigatus, ATCC 90906, 72 h, read-out: MIC
[13] = Nakaseomyces glabratus, ATCC 90030, time 18-24 hrs, read-out: MIC
[14] = Candida albicans, ATCC 90028, time 18-24 hrs, read-out: MIC
[15] = Pichia kudriavzevii, ATCC 6258, time 18-24 hrs, read-out: MIC
[16] = Cryptococcus neoformans, ATCC 90113, 72 h, read-out: MIC
[17] = Cryptococcus neoformans, ATCC 90113, 72 h, read-out: MFC
[18] = Candida albicans, ATCC 90028, time 18-24 hrs, read-out: MFC
[19] = Aspergillus fumigatus, ATCC 90906, 72 h, read-out: MFC
[20] = Pichia kudriavzevii, ATCC 6258, time 18-24 hrs, read-out: MFC
[21] = Chlorocebus sabaeus, Vero, 48 h
[22] = Nakaseomyces glabratus, ATCC 90030, time 18-24 hrs, read-out: MFC

Row | SMILES | MIC [1, 12] | MIC [2, 13] | MIC [3, 14] | MIC [4, 15] | MIC [5, 16] | MFC [6, 17] | MFC [7, 18] | MFC [8, 19] | MFC [9, 20] | IC50 [10, 21] | MFC [11, 22] | also measured
1 | CCCCCCCCCCCCCCC1(O)C(C)=C(C)C2=[N+](Cc3ccc(F)cc3)CCCN21 (stereo not given) | 3.1 µM | 2.2 µM | 6.7 µM | 2.2 µM | 1.5 µM | 1.5 µM | 6.7 µM | 3.1 µM | 2.2 µM | 33 µM | 2.2 µM | 
2 | CCCCCCCCCCCCCCC1(O)C(C)=C(C)C2=[N+](Cc3ccc(Cl)cc3)CCCN21 (stereo not given) | 4.4 µM | 2.1 µM | 3.7 µM | 2.1 µM | 3.7 µM | 3.7 µM | 3.7 µM | 4.4 µM | 2.1 µM | 42 µM | 2.1 µM | 
3 | CCCCCCCCCCCCCCC1(O)C(C)=C(C)C2=[N+](CC(=O)O)CCCN21 (stereo not given) |  |  |  |  | 5.4 µM | 5.4 µM |  |  |  | > 50 µM |  | MIC [1]: inactive; MIC ([2]; time 18-24 hrs): inactive; MIC ([3]; time 18-24 hrs): inactive; MIC ([4]; time 18-24 hrs): inactive; MFC ([7]; time 18-24 hrs): inactive; MFC [8]: inactive; MFC ([9]; time 18-24 hrs): inactive; MFC ([11]; time 18-24 hrs): inactive
4 | CCCCCCCCCCCCCCc1c(C)c(C)cn1CCCNC | 21 µM (≈ 7.62 µg/mL) | 6.9 µM (≈ 2.5 µg/mL) | 12 µM (≈ 4.35 µg/mL) | 6.9 µM (≈ 2.5 µg/mL) | 3.3 µM (≈ 1.2 µg/mL) | 6.9 µM (≈ 2.5 µg/mL) | 12 µM (≈ 4.35 µg/mL) | 23 µM (≈ 8.34 µg/mL) | 6.9 µM (≈ 2.5 µg/mL) | 35 µM | 6.9 µM (≈ 2.5 µg/mL) | 
5 | CCCCCCCCCCCCCCC1(O)C(C)=C(C)C2=[N+](CC(=O)c3cccs3)CCCN21 (stereo not given) | 8.8 µM | 5.1 µM | 7.4 µM | 5.1 µM | 12 µM | 12 µM | 7.4 µM | 8.8 µM | 5.1 µM | 27 µM | 5.1 µM | 
6 | CCCCCCCCCCCCCCC1(O)C(C)=C(C)C2=[N+](Cc3ccccc3)CCCN21.[Cl-] (stereo not given) |  |  |  |  |  |  |  |  |  |  |  | MIC [1]: 5.9 µM; MIC ([2]; time 18-24 hrs): 4.3 µM; MIC ([3]; time 18-24 hrs): 6.7 µM; MIC ([4]; time 18-24 hrs): 4.3 µM; MIC [5]: 2 µM; MFC [6]: 2 µM; MFC ([7]; time 18-24 hrs): 6.7 µM; MFC [8]: 5.9 µM; MFC ([9]; time 18-24 hrs): 4.3 µM; IC50 ([10]; vero): 36 µM; MFC ([11]; time 18-24 hrs): 4.3 µM
7 | CCCCCCCCCCCCCCC1(O)C(C)=C(C)C2=[N+](CC(=O)NCCCNC(=O)OC(C)(C)C)CCCN21 (stereo not given) | 10 µM | 7.6 µM | 14 µM | 5 µM | 3.8 µM | 3.8 µM | 14 µM | 15 µM | 5 µM | > 38 µM | 14 µM | 
8 | CCCCCCCCCCCCCCC1(O)C(C)=C(C)C2=[N+](Cc3ccccc3)CCCN21 (stereo not given) | 4.7 µM | 2.2 µM | 3.9 µM | 2.2 µM | 1.5 µM | 1.5 µM | 3.9 µM | 4.7 µM | 2.2 µM | 25 µM | 2.2 µM | 
9 | CCCCCCCCCCCCCCc1c(C)c(C)cn1CCCN | 19 µM (≈ 6.62 µg/mL) | 11 µM (≈ 3.83 µg/mL) | 24 µM (≈ 8.37 µg/mL) | 12 µM (≈ 4.18 µg/mL) | 2.9 µM (≈ 1.01 µg/mL) | 2.9 µM (≈ 1.01 µg/mL) | 24 µM (≈ 8.37 µg/mL) | 19 µM (≈ 6.62 µg/mL) | 12 µM (≈ 4.18 µg/mL) | 44 µM | 12 µM (≈ 4.18 µg/mL) | 
10 | CCCCCCCCCCCCCCC1(O)C(C)=C(C)C2=[N+](CC(=O)OCC)CCCN21 (stereo not given) | 9.4 µM | 6.2 µM | 9.4 µM | 5.5 µM | 1.9 µM | 2.8 µM | 17 µM | 9.4 µM | 5.5 µM | 44 µM | 11 µM | 
11 | CCCCCCCCCCCCCCC1(O)C(C)=C(C)C2=[N+](Cc3cc(C(F)(F)F)cc(C(F)(F)F)c3)CCCN21 (stereo not given) |  | 2.5 µM | 30 µM | 3.7 µM | 1.8 µM | 2.5 µM |  |  | 3.7 µM | > 37 µM | 2.5 µM | MIC [1]: inactive; MFC ([7]; time 18-24 hrs): inactive; MFC [8]: inactive
12 | CCCCCCCCCCCCCCC1(O)C(C)=C(C)C2=[N+](CC(=O)NCCCN)CCCN21 (stereo not given) | 20 µM | 12 µM | 12 µM | 7.5 µM | 3.8 µM | 3.8 µM | 18 µM | 30 µM | 12 µM | > 45 µM | 15 µM | 
13 | CCCCCCCCCCCCCCC1(O)C(C)=C(C)C2=[N+](Cc3ccc(Br)cc3)CCCN21 (stereo not given) | 5.4 µM | 2 µM | 5.4 µM | 2 µM | 3.4 µM | 6 µM | 5.4 µM | 8.2 µM | 2 µM | 35 µM | 2 µM | 

Continued by falling MIC [5, 16], values first:

Row | MIC [1, 12] | MIC [2, 13] | MIC [3, 14] | MIC [4, 15] | MIC [5, 16] | SMILES | MFC [6, 17] | MFC [7, 18] | MFC [8, 19] | MFC [9, 20] | IC50 [10, 21] | MFC [11, 22] | also measured
14 | 4.5 µM | 2.7 µM | 3.8 µM | 3 µM | 1.4 µM | CCCCCCCCCCCCCCC1(O)C(C)=C(C)C2=[N+](C/C=C/c3ccccc3)CCCN21 (stereo not given) | 4.1 µM | 3.8 µM | 5.9 µM | 3.8 µM | 38 µM | 4.1 µM | 
15 | 4.2 µM | 2 µM | 4.2 µM | 2.8 µM | 1.3 µM | CCCCCCCCCCCCCCC1(O)C(C)=C(C)C2=[N+](Cc3cccc(C(F)(F)F)c3)CCCN21 (stereo not given) | 1.7 µM | 4.2 µM | 6.3 µM | 2.8 µM | 27 µM | 2 µM | 
16 | 3 µM | 2.1 µM | 3 µM | 2.1 µM | 1.1 µM | CCCCCCCCCCCCCCC1(O)C(C)=C(C)C2=[N+](Cc3cccc(OC)c3)CCCN21 (stereo not given) | 1.1 µM | 3 µM | 3 µM | 3 µM | 24 µM | 2.1 µM | 
17 | 3.7 µM | 3 µM | 3.7 µM | 1.8 µM | 1.1 µM | CCCCCCCCCCCCCCC1(O)C(C)=C(C)C2=[N+](Cc3ccc(OC)cc3)CCCN21 (stereo not given) | 1.4 µM | 3.7 µM | 5.1 µM | 2.7 µM | 24 µM | 3 µM | 
18 | 6 µM | 6 µM | 10 µM | 3.5 µM | 1 µM | CCCCCCCCCCCCCCC1(O)C(C)=C(C)C2=[N+](CC#N)CCCN21 (stereo not given) | 1 µM | 10 µM | 6 µM | 4.4 µM | > 52 µM | 8.7 µM | 
19 | 3 µM | 1.8 µM | 3.7 µM | 1.8 µM | 0.88 µM | CCCCCCCCCCCCCCC1(O)C(C)=C(C)C2=[N+](Cc3ccc(F)cc3F)CCCN21 (stereo not given) | 1.1 µM | 3.7 µM | 3.7 µM | 1.8 µM | 28 µM | 1.8 µM | 
20 | 2.3 µM (≈ 2.13 µg/mL) | 0.65 µM (≈ 0.601 µg/mL) | 0.77 µM (≈ 0.712 µg/mL) | 1.3 µM (≈ 1.2 µg/mL) | 0.65 µM (≈ 0.601 µg/mL) | C[C@@H]1[C@H](O)[C@@H](C)/C=C/C=C/C=C/C=C/C=C/C=C/C=C/[C@H](O[C@@H]2O[C@H](C)[C@@H](O)[C@H](N)[C@@H]2O)C[C@@H]2O[C@](O)(C[C@@H](O)C[C@@H](O)[C@H](O)CC[C@@H](O)C[C@@H](O)CC(=O)O[C@H]1C)C[C@H](O)[C@H]2C(=O)O [AMPHOTERICIN B] | 0.65 µM (≈ 0.601 µg/mL) | 0.97 µM (≈ 0.896 µg/mL) | 4 µM (≈ 3.7 µg/mL) | 1.3 µM (≈ 1.2 µg/mL) | 6.8 µM | 0.65 µM (≈ 0.601 µg/mL) | 
